Results on six molecules are retold here after ChEMBL document CHEMBL3991601, “The target landscape of clinical kinase drugs” (Science, 2017).

The target of experiment [1] is Non-receptor tyrosine-protein kinase TYK2 (Homo sapiens, UniProt P29597).
For experiment [2], the target named is T1, Serine/threonine-protein kinase Chk1 (Homo sapiens, UniProt O14757).
T1 sequence (O14757 whole entry): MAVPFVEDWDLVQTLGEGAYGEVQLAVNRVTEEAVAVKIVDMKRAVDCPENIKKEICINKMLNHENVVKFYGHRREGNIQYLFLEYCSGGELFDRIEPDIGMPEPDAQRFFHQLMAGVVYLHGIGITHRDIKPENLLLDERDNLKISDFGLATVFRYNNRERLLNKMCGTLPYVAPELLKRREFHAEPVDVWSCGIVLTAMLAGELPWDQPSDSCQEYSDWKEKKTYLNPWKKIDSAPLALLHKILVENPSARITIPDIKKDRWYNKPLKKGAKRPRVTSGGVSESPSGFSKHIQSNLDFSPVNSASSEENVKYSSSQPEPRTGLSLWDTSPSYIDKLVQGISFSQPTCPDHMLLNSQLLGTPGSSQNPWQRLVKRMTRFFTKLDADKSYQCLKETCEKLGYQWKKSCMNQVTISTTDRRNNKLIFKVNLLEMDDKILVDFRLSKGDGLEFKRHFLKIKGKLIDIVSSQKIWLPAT

For experiment [3], the target named is Bone morphogenetic protein receptor type-1A (Homo sapiens, UniProt P36894).
In experiment [4] the target is Cyclin-dependent kinase 13 (Homo sapiens, UniProt Q14004).
Experiment [5] concerns the target GTP-binding nuclear protein Ran (Homo sapiens, UniProt P62826).
Experiment [6] concerns the target BMP-2-inducible protein kinase (Homo sapiens, UniProt Q9NSY1).
Experiment [7] concerns the target Receptor-interacting serine/threonine-protein kinase 2 (Homo sapiens, UniProt O43353).
Experiment [8] addresses Mitogen-activated protein kinase 11 (Homo sapiens, UniProt Q15759).
Experiment [9] has as its target cAMP-dependent protein kinase catalytic subunit beta (Homo sapiens, UniProt P22694).
Experiment [10] has as its target Dual specificity mitogen-activated protein kinase kinase 2 (Homo sapiens, UniProt P36507).
For experiment [11], the target named is Bone morphogenetic protein receptor type-1B (Homo sapiens, UniProt O00238).
The target in experiment [12] is T2, STE20-related kinase adapter protein alpha (Homo sapiens, UniProt Q7RTN6).
T2 sequence (Q7RTN6 whole entry): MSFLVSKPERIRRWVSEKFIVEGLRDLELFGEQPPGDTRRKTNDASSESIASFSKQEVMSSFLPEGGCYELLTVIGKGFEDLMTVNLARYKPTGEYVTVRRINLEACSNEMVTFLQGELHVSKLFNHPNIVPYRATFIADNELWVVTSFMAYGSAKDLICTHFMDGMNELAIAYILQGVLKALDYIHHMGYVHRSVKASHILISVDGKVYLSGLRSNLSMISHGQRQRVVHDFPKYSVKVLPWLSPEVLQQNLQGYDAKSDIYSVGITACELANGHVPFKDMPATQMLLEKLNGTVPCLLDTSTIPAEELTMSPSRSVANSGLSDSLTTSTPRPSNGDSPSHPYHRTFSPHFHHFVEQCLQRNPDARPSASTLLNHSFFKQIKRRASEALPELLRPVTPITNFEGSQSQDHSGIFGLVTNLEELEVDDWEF

Experiment [13] deals with cAMP-dependent protein kinase type II-alpha regulatory subunit (Homo sapiens, UniProt P13861).
The target in experiment [14] is Tyrosine-protein kinase CSK (Homo sapiens, UniProt P41240).
For a further experiment, the target named is Ephrin type-A receptor 7 (Homo sapiens, UniProt Q15375).
For experiment [15], the target named is Protein kinase C delta type (Homo sapiens, UniProt Q05655).
Experiment [16] deals with Tyrosine-protein kinase Fyn (Homo sapiens, UniProt P06241).
The target of the next experiment is T3, Ephrin type-B receptor 2 (Homo sapiens, UniProt P29323).
T3 sequence (P29323 whole entry): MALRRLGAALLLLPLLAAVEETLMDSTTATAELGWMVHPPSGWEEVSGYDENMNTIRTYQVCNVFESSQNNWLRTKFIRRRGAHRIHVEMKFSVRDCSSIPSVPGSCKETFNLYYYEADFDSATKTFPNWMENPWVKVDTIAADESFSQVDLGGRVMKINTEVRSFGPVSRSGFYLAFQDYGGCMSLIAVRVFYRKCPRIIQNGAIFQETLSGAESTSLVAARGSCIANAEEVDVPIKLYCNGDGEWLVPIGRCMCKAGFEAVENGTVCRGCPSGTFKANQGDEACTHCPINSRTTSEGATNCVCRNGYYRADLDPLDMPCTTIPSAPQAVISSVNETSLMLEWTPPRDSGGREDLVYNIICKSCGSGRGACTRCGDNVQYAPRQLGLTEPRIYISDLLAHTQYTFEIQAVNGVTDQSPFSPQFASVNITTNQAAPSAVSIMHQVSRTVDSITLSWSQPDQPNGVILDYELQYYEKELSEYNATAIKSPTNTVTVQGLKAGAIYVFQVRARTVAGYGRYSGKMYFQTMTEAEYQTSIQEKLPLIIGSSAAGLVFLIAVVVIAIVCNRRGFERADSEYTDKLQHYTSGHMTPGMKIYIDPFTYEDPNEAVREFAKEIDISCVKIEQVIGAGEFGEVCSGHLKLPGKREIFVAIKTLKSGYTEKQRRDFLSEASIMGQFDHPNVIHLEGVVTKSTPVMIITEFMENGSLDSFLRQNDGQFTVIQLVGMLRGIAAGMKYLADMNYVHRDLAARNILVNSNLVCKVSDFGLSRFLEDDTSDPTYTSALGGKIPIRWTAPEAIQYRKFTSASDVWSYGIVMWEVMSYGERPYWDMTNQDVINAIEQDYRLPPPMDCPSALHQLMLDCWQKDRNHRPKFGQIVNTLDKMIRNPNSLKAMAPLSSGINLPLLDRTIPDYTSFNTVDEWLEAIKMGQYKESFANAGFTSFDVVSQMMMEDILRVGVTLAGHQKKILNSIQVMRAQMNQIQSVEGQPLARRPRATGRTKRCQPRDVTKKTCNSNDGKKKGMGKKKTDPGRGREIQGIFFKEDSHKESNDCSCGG

Experiment [17] concerns the target Serine/threonine-protein kinase MRCK gamma (Homo sapiens, UniProt Q6DT37).

Each structure is given as a SMILES string. The source made the active and inactive calls. Cut-off read from the data, not from the text of the source, for most assays here: actives have a measured Kd and inactives only a lower limit.
Note: in the data inactive means no Kd found up to 30 µM.

Chain of Bone morphogenetic protein receptor type-1B (O00238 whole entry): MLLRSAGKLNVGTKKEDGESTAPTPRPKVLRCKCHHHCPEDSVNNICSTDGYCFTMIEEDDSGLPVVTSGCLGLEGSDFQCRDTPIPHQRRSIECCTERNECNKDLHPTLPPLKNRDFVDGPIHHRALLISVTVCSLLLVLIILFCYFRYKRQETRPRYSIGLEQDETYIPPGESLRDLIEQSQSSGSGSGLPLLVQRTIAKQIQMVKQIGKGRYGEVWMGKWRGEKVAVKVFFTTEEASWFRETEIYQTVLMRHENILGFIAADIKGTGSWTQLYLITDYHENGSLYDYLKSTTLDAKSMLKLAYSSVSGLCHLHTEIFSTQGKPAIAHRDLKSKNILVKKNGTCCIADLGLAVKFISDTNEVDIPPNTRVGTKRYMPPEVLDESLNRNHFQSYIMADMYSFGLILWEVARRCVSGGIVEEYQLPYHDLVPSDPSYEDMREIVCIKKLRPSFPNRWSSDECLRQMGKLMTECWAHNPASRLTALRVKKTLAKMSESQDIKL
Chain of BMP-2-inducible protein kinase (Q9NSY1 whole entry): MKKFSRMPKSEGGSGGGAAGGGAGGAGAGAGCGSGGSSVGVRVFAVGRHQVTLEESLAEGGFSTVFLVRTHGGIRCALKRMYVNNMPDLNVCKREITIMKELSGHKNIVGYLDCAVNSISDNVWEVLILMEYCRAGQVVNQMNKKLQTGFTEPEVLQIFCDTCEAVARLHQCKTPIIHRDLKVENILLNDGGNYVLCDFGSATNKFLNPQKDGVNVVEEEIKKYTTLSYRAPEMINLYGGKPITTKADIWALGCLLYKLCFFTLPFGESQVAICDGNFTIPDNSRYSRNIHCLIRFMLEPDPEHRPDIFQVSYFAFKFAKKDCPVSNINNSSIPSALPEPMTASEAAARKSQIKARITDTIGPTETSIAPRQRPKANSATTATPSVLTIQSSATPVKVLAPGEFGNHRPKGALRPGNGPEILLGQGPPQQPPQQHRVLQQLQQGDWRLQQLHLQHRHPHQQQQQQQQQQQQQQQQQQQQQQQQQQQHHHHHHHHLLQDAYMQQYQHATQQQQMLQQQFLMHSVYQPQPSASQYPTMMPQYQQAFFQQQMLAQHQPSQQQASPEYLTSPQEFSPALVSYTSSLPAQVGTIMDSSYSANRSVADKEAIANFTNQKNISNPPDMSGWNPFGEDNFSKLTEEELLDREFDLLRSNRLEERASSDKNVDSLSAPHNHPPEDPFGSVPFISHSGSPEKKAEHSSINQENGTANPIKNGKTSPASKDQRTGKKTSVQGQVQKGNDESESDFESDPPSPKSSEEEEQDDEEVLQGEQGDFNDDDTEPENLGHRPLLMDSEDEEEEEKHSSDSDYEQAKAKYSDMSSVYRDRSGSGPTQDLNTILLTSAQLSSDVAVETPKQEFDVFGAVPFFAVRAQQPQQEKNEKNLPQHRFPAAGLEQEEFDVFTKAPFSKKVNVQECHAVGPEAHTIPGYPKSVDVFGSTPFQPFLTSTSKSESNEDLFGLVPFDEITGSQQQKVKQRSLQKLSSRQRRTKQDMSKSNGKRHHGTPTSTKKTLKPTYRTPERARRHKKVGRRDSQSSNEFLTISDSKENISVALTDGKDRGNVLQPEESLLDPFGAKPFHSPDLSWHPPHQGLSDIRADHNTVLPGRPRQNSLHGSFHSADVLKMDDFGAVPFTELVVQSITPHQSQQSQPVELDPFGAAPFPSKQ
Chain of Receptor-interacting serine/threonine-protein kinase 2 (O43353 whole entry): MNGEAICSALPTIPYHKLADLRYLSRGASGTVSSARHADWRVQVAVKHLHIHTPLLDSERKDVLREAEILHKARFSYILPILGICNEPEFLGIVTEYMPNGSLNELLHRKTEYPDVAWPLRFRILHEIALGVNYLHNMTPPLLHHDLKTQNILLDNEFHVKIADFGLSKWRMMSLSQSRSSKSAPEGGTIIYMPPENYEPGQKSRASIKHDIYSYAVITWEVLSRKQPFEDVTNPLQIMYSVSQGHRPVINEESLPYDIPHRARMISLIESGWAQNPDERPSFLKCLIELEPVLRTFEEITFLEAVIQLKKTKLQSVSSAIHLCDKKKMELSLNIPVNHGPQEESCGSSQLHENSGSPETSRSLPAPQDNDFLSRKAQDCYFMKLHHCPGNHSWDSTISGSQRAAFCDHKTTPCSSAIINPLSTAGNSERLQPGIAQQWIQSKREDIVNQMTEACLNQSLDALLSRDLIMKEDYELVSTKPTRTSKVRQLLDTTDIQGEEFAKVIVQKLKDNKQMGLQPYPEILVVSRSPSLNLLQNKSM
Chain of Bone morphogenetic protein receptor type-1A (P36894 whole entry): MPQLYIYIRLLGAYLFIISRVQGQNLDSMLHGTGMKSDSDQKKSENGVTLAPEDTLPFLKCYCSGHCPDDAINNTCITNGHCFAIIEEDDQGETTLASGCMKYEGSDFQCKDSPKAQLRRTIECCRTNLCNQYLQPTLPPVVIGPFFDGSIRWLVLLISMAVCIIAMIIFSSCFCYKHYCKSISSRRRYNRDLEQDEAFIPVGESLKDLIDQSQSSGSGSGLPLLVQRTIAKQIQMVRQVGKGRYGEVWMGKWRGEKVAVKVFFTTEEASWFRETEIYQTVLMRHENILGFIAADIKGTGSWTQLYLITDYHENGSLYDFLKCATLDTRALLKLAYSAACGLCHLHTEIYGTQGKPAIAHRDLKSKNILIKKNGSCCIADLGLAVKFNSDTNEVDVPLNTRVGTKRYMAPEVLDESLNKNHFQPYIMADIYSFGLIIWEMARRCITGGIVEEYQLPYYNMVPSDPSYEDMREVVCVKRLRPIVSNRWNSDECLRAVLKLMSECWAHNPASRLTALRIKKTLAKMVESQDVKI
Chain of Tyrosine-protein kinase Fyn (P06241 whole entry): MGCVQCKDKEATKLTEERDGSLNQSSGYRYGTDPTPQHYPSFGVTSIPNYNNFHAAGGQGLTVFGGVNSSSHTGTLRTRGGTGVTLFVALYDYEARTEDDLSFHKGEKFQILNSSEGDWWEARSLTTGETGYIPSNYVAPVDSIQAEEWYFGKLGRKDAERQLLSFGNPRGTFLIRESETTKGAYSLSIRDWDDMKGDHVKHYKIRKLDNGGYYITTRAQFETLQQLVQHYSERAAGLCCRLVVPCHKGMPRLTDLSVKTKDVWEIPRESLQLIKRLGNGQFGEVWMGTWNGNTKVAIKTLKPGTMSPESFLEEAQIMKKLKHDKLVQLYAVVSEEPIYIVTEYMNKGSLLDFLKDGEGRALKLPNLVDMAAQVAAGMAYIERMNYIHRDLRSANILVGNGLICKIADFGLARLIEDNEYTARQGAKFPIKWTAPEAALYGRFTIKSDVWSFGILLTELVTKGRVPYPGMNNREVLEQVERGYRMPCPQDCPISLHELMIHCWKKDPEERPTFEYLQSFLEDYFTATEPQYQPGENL
Chain of Protein kinase C delta type (Q05655 whole entry): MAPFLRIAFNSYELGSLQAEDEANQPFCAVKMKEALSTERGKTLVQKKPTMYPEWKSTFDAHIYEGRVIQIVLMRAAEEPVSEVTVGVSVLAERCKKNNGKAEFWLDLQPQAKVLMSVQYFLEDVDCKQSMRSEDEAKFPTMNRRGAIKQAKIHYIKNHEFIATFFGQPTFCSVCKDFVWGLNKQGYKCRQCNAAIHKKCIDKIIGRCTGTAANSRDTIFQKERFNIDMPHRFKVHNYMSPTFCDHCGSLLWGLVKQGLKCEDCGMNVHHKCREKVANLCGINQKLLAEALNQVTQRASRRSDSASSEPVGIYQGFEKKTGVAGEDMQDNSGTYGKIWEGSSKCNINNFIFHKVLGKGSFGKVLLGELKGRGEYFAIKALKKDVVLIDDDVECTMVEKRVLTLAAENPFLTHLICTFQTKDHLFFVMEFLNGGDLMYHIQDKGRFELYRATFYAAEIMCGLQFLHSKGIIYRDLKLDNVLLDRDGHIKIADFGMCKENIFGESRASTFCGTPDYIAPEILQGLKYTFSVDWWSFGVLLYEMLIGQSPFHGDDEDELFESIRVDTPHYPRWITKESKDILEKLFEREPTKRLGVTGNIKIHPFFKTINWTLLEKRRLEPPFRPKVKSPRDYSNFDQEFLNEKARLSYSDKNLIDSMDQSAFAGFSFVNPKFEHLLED
Chain of Dual specificity mitogen-activated protein kinase kinase 2 (P36507 whole entry): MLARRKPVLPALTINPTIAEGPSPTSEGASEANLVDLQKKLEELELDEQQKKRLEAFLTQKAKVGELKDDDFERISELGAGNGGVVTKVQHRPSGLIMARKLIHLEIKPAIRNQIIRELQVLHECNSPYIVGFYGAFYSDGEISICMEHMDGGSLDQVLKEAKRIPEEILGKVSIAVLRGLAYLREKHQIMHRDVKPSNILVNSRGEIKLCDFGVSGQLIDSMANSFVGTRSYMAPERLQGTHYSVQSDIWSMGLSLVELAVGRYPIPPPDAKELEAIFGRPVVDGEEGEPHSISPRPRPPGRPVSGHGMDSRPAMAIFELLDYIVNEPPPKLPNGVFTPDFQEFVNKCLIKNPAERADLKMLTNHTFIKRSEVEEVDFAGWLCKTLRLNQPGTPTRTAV
Chain of Mitogen-activated protein kinase 11 (Q15759 whole entry): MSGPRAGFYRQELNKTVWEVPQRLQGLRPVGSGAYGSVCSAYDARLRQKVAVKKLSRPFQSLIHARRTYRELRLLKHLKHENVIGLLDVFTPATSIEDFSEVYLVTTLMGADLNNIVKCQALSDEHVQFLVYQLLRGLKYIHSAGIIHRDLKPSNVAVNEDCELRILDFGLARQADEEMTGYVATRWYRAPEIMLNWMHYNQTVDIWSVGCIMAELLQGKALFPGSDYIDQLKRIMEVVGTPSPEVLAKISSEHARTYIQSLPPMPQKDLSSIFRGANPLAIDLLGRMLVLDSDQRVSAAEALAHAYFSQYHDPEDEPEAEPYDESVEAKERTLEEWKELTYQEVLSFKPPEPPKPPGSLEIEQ

Take `C=CC(=O)Nc1cc(Nc2nccc(-c3cn(C)c4ccccc34)n2)c(OC)cc1N(C)CCN(C)C` [OSIMERTINIB]: the Kd in [1], in [2], in experiment [3], in [4], in [5] and in experiment [6] was > 30 µM (inactive) each time. The Kd in experiment [7], in experiment [8], in experiment [9], in experiment [10], in experiment [11] and in experiment [12] was > 30 µM (inactive) each time. In addition, the Kd (in [13]; in [14]; on Ephrin type-A receptor 7; in experiment [15]; in experiment [16]; at Ephrin type-B receptor 2) was > 30 µM (inactive) in each case. Further, in experiment [17], the Kd is > 30 µM (inactive).
Turning to `COCCN1CCN(Cc2ccc(-c3n[nH]c4c3C(=O)c3c(NC(=O)NN5CCOCC5)cccc3-4)cc2)CC1` [RGB-286638], the Kd is > 30 µM (inactive) in experiment [1]; > 30 µM (inactive) in experiment [2]; > 30 µM (inactive) in experiment [3]; 1.01 µM (active) in experiment [4]; > 30 µM (inactive) in [5]; 0.008 µM (active) in experiment [6]. Further, the Kd in [7], in [8], in experiment [9], in [10], in experiment [11] and in [12] was > 30 µM (inactive) in each case. For the same molecule, the Kd (in experiment [13]; in experiment [14]; at Ephrin type-A receptor 7; in experiment [15]; in [16]; on Ephrin type-B receptor 2) was > 30 µM (inactive) in each case. Besides, in experiment [17], the Kd was > 30 µM (inactive).
With `C[C@@H]1COC(Nc2ccc3ncnc(Nc4ccc(OCc5nccs5)c(Cl)c4)c3c2)=N1` [VARLITINIB], the Kd in experiment [1], in [2], in experiment [3], in experiment [4], in [5] and in experiment [6] was > 30 µM (inactive) each time. Moreover, the equilibrium dissociation constant (Kd) is 0.81 µM (active) in experiment [7]; > 30 µM (inactive) in [8]; > 30 µM (inactive) in [9]; > 30 µM (inactive) in experiment [10]; > 30 µM (inactive) in experiment [11]; > 30 µM (inactive) in experiment [12]. Moreover, the Kd (in experiment [13]; in [14]; at Ephrin type-A receptor 7; in [15]; in experiment [16]; on Ephrin type-B receptor 2) was > 30 µM (inactive) throughout. The Kd in [17] is > 30 µM (inactive).
For the molecule `CCc1cc2c(cc1N1CCC(N3CCOCC3)CC1)C(C)(C)c1[nH]c3cc(C#N)ccc3c1C2=O` [ALECTINIB], the Kd in [1], in experiment [2], in experiment [3], in [4], in [5] and in [6] was > 30 µM (inactive) throughout. Besides, the Kd in [7], in experiment [8], in experiment [9], in experiment [10], in [11] and in [12] was > 30 µM (inactive) throughout. The Kd (in [13]; in experiment [14]; on Ephrin type-A receptor 7; in experiment [15]; in experiment [16]; at Ephrin type-B receptor 2) was > 30 µM (inactive) in each case. Also, the Kd in experiment [17] is > 30 µM (inactive).
`Cc1c(NC(=O)OC[C@@H]2COCCN2)cn2ncnc(Nc3ccc4c(cnn4Cc4cccc(F)c4)c3)c12` [AC-480]: the Kd in experiment [1], in experiment [2], in experiment [3], in experiment [4], in experiment [5] and in [6] was > 30 µM (inactive) in each case. Also, the Kd in experiment [7], in experiment [8], in [9], in experiment [10], in [11] and in experiment [12] was > 30 µM (inactive) throughout. The Kd (in experiment [13]; in [14]; at Ephrin type-A receptor 7; in experiment [15]; in [16]; on Ephrin type-B receptor 2) was > 30 µM (inactive) in each case. In experiment [17], the Kd was > 30 µM (inactive).
In the case of `COc1cc(Nc2ncc(F)c(Nc3ccc4c(n3)N(COP(=O)(O)O)C(=O)C(C)(C)O4)n2)cc(OC)c1OC` [FOSTAMATINIB], the Kd in [1], in experiment [2], in [3], in experiment [4], in [5] and in experiment [6] was > 30 µM (inactive) throughout. The Kd in experiment [7], in experiment [8], in experiment [9], in experiment [10], in [11] and in [12] was > 30 µM (inactive) throughout. Moreover, the Kd (in experiment [13]; in experiment [14]; at Ephrin type-A receptor 7; in experiment [15]; in [16]; on Ephrin type-B receptor 2) was > 30 µM (inactive) in each case. Besides, the Kd in experiment [17] was > 30 µM (inactive).

Usually Kd stands for the concentration at which binding is half-saturated.
